# Source: US20250275537A1, “CARBOXAMIDE APYRASE INHIBITORS” (Texas Crop Science, Inc., priority 2024, published 2025)
# System: apyrase
# Experiment: Apyrase inhibition assay (Method 1)
# Assay type: biochemical
# Conditions: inhibitor conc at 1 mM stock, 10 μl per well; 1 hr room temperature; rounded average of at least two assay results
# Protocol: Apyrase inhibitors useful as enhancers of pesticidal activity are assessed using an in vitro assay. The method of Windsor, Bio Techniques 33:1024-1030 (November 2002) was used as follows
# 96 well plates were used for the assay: (Greiner bio-one: REF-655901-96 well, PS, F-bottom, Clear, Non-binding)
# • Reaction Buffer: 60 mM Hepes, 3 mM MgCl2, 3 mM CaCl2 and 3 mM ATP (pH 6.5) • Development Buffer A: 2% aqueous ammonium molybdate • Development Buffer B: 11% ascorbic acid in 37.5% TCA in water • Stop buffer C: 2% trisodium citrate in 2% acetic acid solution in water • Add 100 μl of reaction buffer to each well. • Add 10 μl of DMSO (control) or inhibitor/compound or compounds such as N1915 or orthovanadate to each well. (use inhibitor conc at 1 mM; orthovanadate at 2 mM and N1915 at 1 mM) • Add 10 μl of apyrase (concentration based on optimization —Dilute 1 U/μl enzyme to different concentrations such as 0.1U, 0.05U, 0.0025, 0.001U, 0.0005U—to find a good range) • Incubate plate at room temperature for 1 hr • Mix development buffer A and B in the ratio of 1:1.5 (just before use). • Add 50 ul of A:B mix in each well (incubate for 2 mins) • Add 50 ul of C in each well • Measure/Read Absorbance of plate @630 nm
# Inhibitory data for the apyrase assay described above are provided for selected compounds in Table 3. In Table 3, D indicates inhibition of <10%.
# With reference to Table 3, percent inhibition of apyrase is reported as the rounded average of at least two assay results.
row,Structure (SMILES),% Inhibition of Apyrase
1,"O=C(NCc1ccccc1)c1ccccc1C(=O)NCc1ccccc1 [Compound I-30, N^1,N^2-dibenzylphthalamide]",C (C indicates inhibition of from 10% to 20%)
2,"COCC#CCn1c(=O)c2ccccc2c(=O)n1C [Compound I-31, 2-(4-methoxybut-2-yn-1-yl)-3-methyl-2,3-dihydrophthalazine-1,4-dione]",C (C indicates inhibition of from 10% to 20%)
3,"CC(NC(=O)c1cccc(C(=O)Nc2ccccc2)c1)C(=O)N1CCS(=O)(=O)CC1 (stereo not shown) [Compound I-32, N^1-(1-(1,1-dioxidothiomorpholino)-1-oxopropan-2-yl)-N^3-phenylisophthalamide]",C (C indicates inhibition of from 10% to 20%)
4,"O=C(Nc1cccc([N+](=O)[O-])c1)c1ccccc1C(=O)N1CCCC1 [Compound I-33, N-(3-nitrophenyl)-2-(pyrrolidine-1-carbonyl)benzamide]",C (C indicates inhibition of from 10% to 20%)
5,"O=C(Nc1ccccc1)c1ccc(C(=O)Nc2cc3n(n2)CCC3)cc1 [Compound I-34, N^1-(5,6-dihydro-4H-pyrrolo[1,2-b]pyrazol-2-yl)-N^4-phenylterephthalamide]",C (C indicates inhibition of from 10% to 20%)
6,"CNC(=O)c1cccc(C(=O)Nc2ccc(C#N)c(C(F)(F)F)c2)c1 [Compound I-35, N^1-(4-cyano-3-(trifluoromethyl)phenyl)-N^3-methylisophthalamide]",C (C indicates inhibition of from 10% to 20%)
7,"O=C1CCCc2cc(NC(=O)c3cccc(C(=O)Nc4ccc5c(c4)CCCC(=O)N5)c3)ccc2N1 [Compound I-36, N^1,N^3-bis(2-oxo-2,3,4,5-tetrahydro-1H-benzo[b]azepin-7-yl)isophthalamide]",C (C indicates inhibition of from 10% to 20%)
8,"Cc1cccc(C)c1NC(=O)c1ccccc1C(=O)N(C)Cc1ccccc1 [Compound I-37, N^1-benzyl-N^2-(2,6-dimethylphenyl)-N1-methylphthalamide]",D (D indicates inhibition of <10%)
9,"Cc1cnc(NC(=O)c2ccc(C(=O)Nc3ccccc3)cc2)[nH]1 [Compound I-38, N^1-(5-methyl-1H-imidazol-2-yl)-N^4-phenylterephthalamide]",D (D indicates inhibition of <10%)
10,"Cc1nc(NC(=O)c2ccc(C(=O)Nc3ccccc3)cc2)n[nH]1 [Compound I-39, N^1-(5-methyl-1H-1,2,4-triazol-3-yl)-N^4-phenylterephthalamide]",D (D indicates inhibition of <10%)
11,"COc1ccccc1NC(=O)c1ccccc1C(=O)N(C)Cc1ccccc1 [Compound I-40, N^1-benzyl-N^2-(2-methoxyphenyl)-N1-methylphthalamide]",D (D indicates inhibition of <10%)
12,"O=C(Nc1ccc2scnc2c1)c1ccc(C(=O)NC2CC2)cc1 [Compound I-41, N^1-(benzo[d]thiazol-5-yl)-N^4-cyclopropylterephthalamide]",D (D indicates inhibition of <10%)
13,"O=C(Nc1ccccc1)c1ccc(C(=O)N[C@@H]2C[C@H]2c2ccccc2)cc1 [Compound I-42, N^1-phenyl-N^4-((1R,2S)-2-phenylcyclopropyl)terephthalamide]",D (D indicates inhibition of <10%)
14,"CN(C(=O)c1ccccc1C(=O)Nc1cccc(C(F)(F)F)c1)C1CCCCC1 [Compound I-43, N^1-cyclohexyl-N^1-methyl-N^2-(3-(trifluoromethyl)phenyl)phthalamide]",D (D indicates inhibition of <10%)
15,"CNC(=O)c1cccc(C(=O)Nc2cccc(NC3CCCC3)c2)c1 [Compound I-44, N^1-(3-(cyclopentylamino)phenyl)-N^3-methylisophthalamide]",D (D indicates inhibition of <10%)
16,"COc1ccc(NC(=O)c2ccc(C(=O)Nc3ccc(OC)cc3OC)cc2)c(OC)c1 [Compound I-45, N^1,N^4-bis(2,4-dimethoxyphenyl)terephthalamide]",D (D indicates inhibition of <10%)
17,"O=C(Nc1ccc(N2CCCC2=O)cc1)c1ccc(C(=O)Nc2ccc(N3CCCC3=O)cc2)cc1 [Compound I-46, N^1,N^4-bis(4-(2-oxopyrrolidin-1-yl)phenyl)terephthalamide]",D (D indicates inhibition of <10%)

row,Structure (SMILES),% Inhibition of Apyrase
1,"O=C(Nc1ccccc1-c1ncc[nH]1)c1ccc(C(=O)NC2CC2)cc1 [Compound I-47, N^1-(2-(1H-imidazol-2-yl)phenyl)-N^4-cyclopropylterephthalamide]",D (D indicates inhibition of <10%)
2,"O=C(NCc1ncc[nH]1)c1ccc(C(=O)Nc2ccccc2)cc1 [Compound I-48, N^1-((1H-imidazol-2-yl)methyl)-N^4-phenylterephthalamide]",D (D indicates inhibition of <10%)
3,Cc1nncn1CCNC(=O)c1ccc(C(=O)Nc2ccccc2)cc1 [Compound I-49],D (D indicates inhibition of <10%)
4,"CNC(=O)c1cccc(C(=O)Nc2ccc3[nH]c(=O)sc3c2)c1 [Compound I-50, N^1-methyl-N^3-(2-oxo-2,3-dihydrobenzo[d]thiazol-6-yl)isophthalamide]",D (D indicates inhibition of <10%)
5,"Cc1cc(C)c(NC(=O)c2ccc(C(=O)Nc3c(C)cc(C)cc3C)cc2)c(C)c1 [Compound I-51, N^1,N^4-dimesitylterephthalamide]",D (D indicates inhibition of <10%)
6,"CCCNC(=O)c1cccc(C(=O)Nc2ccc3c[nH]nc3c2)c1 [Compound I-52, N^1-(2H-indazol-6-yl)-N^3-propylisophthalamide]",D (D indicates inhibition of <10%)
7,"CN1CCN(C(=O)c2ccccc2C(=O)Nc2ccc(F)cc2)CC1 [Compound I-53, N-(4-fluorophenyl)-2-(4-methylpiperazine-1-carbonyl)benzamide]",D (D indicates inhibition of <10%)
8,"O=C(Nc1cccc2c1CNC2=O)c1cccc(C(=O)Nc2cccc3c2CNC3=O)c1 [Compound I-54, N^1,N^3-bis(1-oxoisoindolin-4-yl)isophthalamide]",D (D indicates inhibition of <10%)
9,"Nc1ccnc(CNC(=O)c2ccc(C(=O)Nc3ccccc3)cc2)n1 [Compound I-55, N^1-((4-aminopyrimidin-2-yl)methyl)-N^4-phenylterephthalamide]",D (D indicates inhibition of <10%)
10,"CNC(=O)c1cccc(C(=O)Nc2ccc(NS(=O)(=O)C(F)(F)F)cc2)c1 [Compound I-56, N^1-methyl-N^3-(4-((trifluoromethyl)sulfonamido)phenyl)iso-phthalamide]",D (D indicates inhibition of <10%)
11,"CCCNC(=O)c1cccc(C(=O)Nc2cccc3cn[nH]c23)c1 [Compound I-57, N^1-(1H-indazol-7-yl)-N^3-propylisophthalamide]",D (D indicates inhibition of <10%)
12,"C#Cc1cccc(NC(=O)c2ccccc2C(=O)N2CCN(C)CC2)c1 [Compound I-58, N-(3-ethynylphenyl)-2-(4-methylpiperazine-1-carbonyl)benzamide]",D (D indicates inhibition of <10%)
13,"Cn1c(=O)c2ccccc2c(=O)n1Cc1nnc(C2CC2)o1 [Compound I-59, 2-((5-cyclopropyl-1,3,4-oxadiazol-2-yl)methyl)-3-methyl-2,3-dihydrophthalazine-1,4-dione]",D (D indicates inhibition of <10%)
14,"O=C1CCCc2ccc(NC(=O)c3ccc4c(c3)C(=O)NCCO4)cc2N1 [Compound I-60, 5-oxo-N-(2-oxo-2,3,4,5-tetrahydro-1H-benzo[b]azepin-8-yl)-2,3,4,5-tetrahydrobenzo[f][1,4]oxazepine-7-carboxamide]",D (D indicates inhibition of <10%)
15,"O=C(Nc1ccccc1)c1ccc(C(=O)Nc2cnn(CC3CCCO3)c2)cc1 (stereo not shown) [Compound I-61, N^1-phenyl-N^4-(1-((tetrahydrofuran-2-yl)methyl)-1H-pyrazol-4-yl)terephthalamide]",D (D indicates inhibition of <10%)
16,"O=C(Nc1ccc(OC(F)(F)C(F)F)cc1)c1cccc(C(=O)Nc2ccc(OC(F)(F)C(F)F)cc2)c1 [Compound I-62, N^1,N^3-bis(4-(1,1,2,2-tetrafluoroethoxy)phenyl)isophthalamide]",A (A indicates inhibition above 30%)
17,"Cc1cc2c(cc1NC(=O)c1cccc(C(=O)Nc3ccccc3)c1)OCO2 [Compound I-64, N^1-(6-methylbenzo[d][1,3]dioxol-5-yl)-N^3-phenylisophthalamide]",B (B indicates inhibition of from 20% to 30%)
